Where a name gives a salt, the structure may show the parent alone.

The IC50 is the point on the concentration scale where inhibition reaches its midpoint. High values mean weaker potency in that assay, low ones greater potency in that assay.

For the assay, the target named is T1, CFTR channel in human colonic T84 cells (Homo sapiens, UniProt P13569).
T1 construct: results in the phosphorylation and opening of CFTR anion channels; host or cells: human colonic T84 cells
T1 sequence (P13569 whole entry): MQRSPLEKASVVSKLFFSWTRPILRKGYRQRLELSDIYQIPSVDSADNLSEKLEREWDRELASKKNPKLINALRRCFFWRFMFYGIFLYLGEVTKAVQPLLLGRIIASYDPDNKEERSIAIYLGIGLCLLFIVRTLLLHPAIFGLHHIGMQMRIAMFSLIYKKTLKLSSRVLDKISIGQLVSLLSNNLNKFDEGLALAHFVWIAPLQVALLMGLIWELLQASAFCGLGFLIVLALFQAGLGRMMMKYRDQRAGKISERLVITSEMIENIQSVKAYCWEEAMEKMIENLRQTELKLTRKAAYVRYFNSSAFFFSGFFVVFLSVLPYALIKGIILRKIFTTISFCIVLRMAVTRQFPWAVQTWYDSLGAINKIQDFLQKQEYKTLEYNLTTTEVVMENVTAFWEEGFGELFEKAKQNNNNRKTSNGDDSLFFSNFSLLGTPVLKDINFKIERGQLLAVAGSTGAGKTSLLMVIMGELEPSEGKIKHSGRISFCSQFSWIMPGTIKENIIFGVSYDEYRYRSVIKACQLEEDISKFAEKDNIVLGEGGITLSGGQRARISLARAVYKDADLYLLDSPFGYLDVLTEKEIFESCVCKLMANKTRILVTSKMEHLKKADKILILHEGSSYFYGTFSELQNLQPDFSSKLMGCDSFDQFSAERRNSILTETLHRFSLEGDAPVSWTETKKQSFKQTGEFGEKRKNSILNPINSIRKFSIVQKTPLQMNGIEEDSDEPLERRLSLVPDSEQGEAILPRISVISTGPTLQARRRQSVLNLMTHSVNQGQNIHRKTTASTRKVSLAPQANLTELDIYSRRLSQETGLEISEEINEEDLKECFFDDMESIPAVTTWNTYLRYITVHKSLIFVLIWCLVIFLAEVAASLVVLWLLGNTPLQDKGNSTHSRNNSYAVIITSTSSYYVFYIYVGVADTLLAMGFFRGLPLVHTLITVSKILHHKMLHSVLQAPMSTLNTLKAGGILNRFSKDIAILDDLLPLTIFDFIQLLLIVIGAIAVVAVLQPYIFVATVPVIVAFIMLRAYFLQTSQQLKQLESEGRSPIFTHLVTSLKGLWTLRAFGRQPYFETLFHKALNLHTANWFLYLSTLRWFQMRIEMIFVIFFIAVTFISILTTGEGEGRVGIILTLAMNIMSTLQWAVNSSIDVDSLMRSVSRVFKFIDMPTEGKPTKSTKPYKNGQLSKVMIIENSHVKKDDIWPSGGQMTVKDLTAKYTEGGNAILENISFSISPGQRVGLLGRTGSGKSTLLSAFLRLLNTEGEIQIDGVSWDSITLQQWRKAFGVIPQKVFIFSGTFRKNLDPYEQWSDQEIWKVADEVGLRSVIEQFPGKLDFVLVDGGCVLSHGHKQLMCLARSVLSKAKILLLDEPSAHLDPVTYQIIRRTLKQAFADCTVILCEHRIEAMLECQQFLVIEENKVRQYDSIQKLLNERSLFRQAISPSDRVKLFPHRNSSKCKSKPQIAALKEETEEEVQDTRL
Kind of assay: T84 assay (FLIPR membrane potential dye, forskolin/IBMX-stimulated CFTR). The class given is cell-based. As to conditions: average of at least 2 runs unless annotated n = 1. In outline: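 T84 cells (25,000/well, grown overnight) were washed in HBSS with 10 mM Hepes, then loaded with FLIPR Red membrane potential dye for 45 min with or without compound. CFTR was stimulated with 10 μM forskolin plus 100 μM IBMX after a 10 s baseline. Depolarization was tracked as a fluorescence increase, read every second for 150 s.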
In the case of `Oc1c(Cl)cc(-c2cnc(OCc3ccc(CN4CCN(CCc5ccccc5)CC4)cc3)nn2)cc1Cl` [Compound 152, 2,6-dichloro-4-(3-(4-((4-phenethylpiperazin-1-yl)methyl)benzyloxy)-1,2,4-triazin-6-yl)phenol], the IC50 amounted to 8.88 µM.
Then `Oc1c(Cl)cc(-c2cnc(OCc3cccc(OC(F)(F)F)c3)nn2)cc1Cl` [Compound 153, 2,6-dichloro-4-(3-(3-(trifluoromethoxy)benzyloxy)-1,2,4-triazin-6-yl)phenol], with 2.17 µM; and `Oc1c(Cl)cc(-c2cnc(OCc3ccc(OC(F)(F)F)cc3)nn2)cc1Cl` [Compound 154, 2,6-dichloro-4-(3-(4-(trifluoromethoxy)benzyloxy)-1,2,4-triazin-6-yl)phenol], with 1.56 µM; and `O=C(COc1ccccc1)N1CCN(Cc2ccc(COc3ncc(-c4cc(Cl)c(O)c(Cl)c4)nn3)cc2)CC1` [Compound 155, 1-(4-(4-((6-(3,5-dichloro-4-hydroxyphenyl)-1,2,4-triazin-3-yloxy)methyl)benzyl)piperazin1-yl)-2-phenoxyethanone], with 4.95 µM.
For `Oc1c(Cl)cc(-c2cnc(OCc3ccc(CNCc4ccncc4)cc3)nn2)cc1Cl` [Compound 156, 2,6-dichloro-4-(3-(4-((pyridin-4-ylmethylamino)methyl)benzyloxy)-1,2,4-triazin-6-yl)phenol] the value was 15.4 µM; for `Oc1c(Cl)cc(-c2cnc(OCc3ccc(CNC(CN4CCOCC4)c4ccccc4)cc3)nn2)cc1Cl` (centres unmarked) [Compound 157, 2,6-dichloro-4-(3-(4-((2-morpholino-1-phenylethylamino)methyl)benzyloxy)-1,2,4-triazin-6-yl)phenol], 2.27 µM.
Then `Oc1c(Cl)cc(-c2cnc(OCc3ccc(CN4CCN(Cc5cccnc5)CC4)cc3)nn2)cc1Cl` [Compound 158, 2,6-dichloro-4-(3-(4-((4-(pyridin-3-ylmethyl)piperazin-1-yl)methyl)benzyloxy)-1,2,4-triazin-6-yl)phenol], with 14.2 µM; and `OCCN(Cc1ccccc1)Cc1ccc(COc2ncc(-c3cc(Cl)c(O)c(Cl)c3)nn2)cc1` [Compound 159, 4-(3-(4-((benzyl(2-hydroxyethyl)amino)methyl)benzyloxy)-1,2,4-triazin-6-yl)-2,6-dichlorophenol], with 3.37 µM.
As to `OCCN(Cc1cccnc1)c1ncc(-c2cc(Cl)c(O)c(Cl)c2)nn1` [Compound 160, 2,6-dichloro-4-(3-((2-hydroxyethyl)(pyridin-3-ylmethyl)amino)-1,2,4-triazin-6-yl)phenol], half-maximal inhibition (IC50) required 22.4 µM.
Then `CN(Cc1ccc(COc2ncc(-c3cc(Cl)c(O)c(Cl)c3)nn2)cc1)CC(O)c1ccccc1` (centres unmarked) [Compound 161, 2,6-dichloro-4-(3-(4-(((2-hydroxy-2-phenylethyl)(methyl)amino)methyl)benzyloxy)-1,2,4-triazin-6-phenol, formate salt], with 18.3 µM.
Then `Oc1c(Cl)cc(-c2cnc(OCc3ccc(CN4Cc5ccccc5C4)cc3)nn2)cc1Cl` [Compound 162, 2,6-dichloro-4-(3-(4-(isoindolin-2-ylmethyl)benzyloxy)-1,2,4-triazin-6-yl)phenol], with 2.96 µM; and `CN(Cc1ccccc1)Cc1ccc(COc2ncc(-c3cc(Cl)c(O)c(Cl)c3)nn2)cc1` [Compound 163, 4-(3-(4-((benzyl(methyl)amino)methyl)benzyloxy)-1,2,4-triazin-6-yl)-2,6-dichlorophenol], with 2.66 µM; and `Oc1c(Cl)cc(-c2cnc(OCc3ccc(CNCc4ccc(F)cc4)cc3)nn2)cc1Cl` [Compound 164, 2,6-dichloro-4-(3-(4-((4-fluorobenzylamino)methyl)benzyloxy)-1,2,4-triazin-6-yl)phenol], with 28.5 µM.
Then `CN(Cc1ccc(F)cc1)Cc1ccc(COc2ncc(-c3cc(Cl)c(O)c(Cl)c3)nn2)cc1` [Compound 165, 2,6-dichloro-4-(3-(4-(((4-fluorobenzyl)(methyl)amino)methyl)benzyloxy)-1,2,4-triazin-6-yl)phenol], with 2.46 µM; and `Oc1c(Cl)cc(-c2cnc(OCc3ccc(CN4CCc5ccccc5C4)cc3)nn2)cc1Cl` [Compound 166], with 3.08 µM; and `Oc1c(Cl)cc(-c2cnc(OCc3ccc(CN(Cc4ccccc4)Cc4ccccc4)cc3)nn2)cc1Cl` [Compound 167, 2,6-dichloro-4-(3-(4-((dibenzylamino)methyl)benzyl-oxy)-1,2,4-triazin-6-yl)phenol], with 6.61 µM.
Regarding `Oc1c(Cl)cc(-c2cnc(OCc3ccc(CN4CCC(Cc5ccccc5)CC4)cc3)nn2)cc1Cl` [Compound 168, 4-(3-(4-((4-benzylpiperidin-1-yl)methyl)benzyloxy)-1,2,4-triazin-6-yl)-2,6-dichlorophenol], the IC50 came to 13.9 µM.
For `Oc1c(Cl)cc(-c2cnc(OCc3ccc(CNCc4ccc(C(F)(F)F)nc4)cc3)nn2)cc1Cl` [Compound 169, 2,6-dichloro-4-(3-(4-(((6-(trifluoromethyl)pyridin-3-yl)methylamino)methyl)benzyl-oxy)-1,2,4-triazin-6-yl)phenol], the IC50 amounted to 7.77 µM.
For `CN(Cc1ccc(COc2ncc(-c3cc(Cl)c(O)c(Cl)c3)nn2)cc1)Cc1cncc(Br)c1` [Compound 170, 4-(3-(4-((((5-bromopyridin-3-yl)methyl)(methyl)amino)methyl)benzyloxy)-1,2,4-triazin-6-yl)-2,6-dichlorophenol] the value was 2.81 µM; for `CN(Cc1ccc(COc2ncc(-c3cc(Cl)c(O)c(Cl)c3)nn2)cc1)C(c1ccccc1)c1ccccc1` [Compound 171, 4-(3-(4-((benzhydryl(methyl)amino)methyl)benzyloxy)-1,2,4-triazin-6-yl)-2,6-dichlorophenol], 14.4 µM; for `OCCN(Cc1ccc(COc2ncc(-c3cc(Cl)c(O)c(Cl)c3)nn2)cc1)Cc1ccccc1Cl` [Compound 172, 2,6-dichloro-4-(3-(4-(((2-chlorobenzyl)(2-hydroxyethyl)amino)methyl)benzyl-ozyloxy)-1,2,4-triazin-6-yl)phenol], 3.36 µM.
Then `Oc1c(Cl)cc(-c2cnc(OCc3ccc(CN4CCC(O)(c5ccccc5)CC4)cc3)nn2)cc1Cl` [Compound 173, 1-(4-((6-(3,5-dichloro-4-hydroxyphenyl)-1,2,4-triazin-3-yloxy)methyl)benzyl)-4-phenylpiperidin-4-ol], with 28.4 µM; and `Oc1c(Cl)cc(-c2cnc(OCc3ccc(CN4CCC(C(O)(c5ccccc5)c5ccccc5)CC4)cc3)nn2)cc1Cl` [Compound 174, 2,6-dichloro-4-(3-(4-((4-(hydroxydiphenylmethyl)piperidin-1-yl)methyl)benzyloxy)-1,2,4-triazin-6-yl)phenol, formate salt], with 15.1 µM.
Then `CN(Cc1ccncc1)Cc1ccc(COc2ncc(-c3cc(Cl)c(O)c(Cl)c3)nn2)cc1` [Compound 175, 2,6-dichloro-4-(3-(4-((methyl(pyridin-4-ylmethyl)amino)methyl)benzyl-oxy)-1,2,4-triazin-6-yl)phenol], with 11.7 µM; and `CN(Cc1ccc(COc2ncc(-c3cc(Cl)c(O)c(Cl)c3)nn2)cc1)Cc1ccc(Oc2ccccn2)cc1` [Compound 176, 2,6-dichloro-4-(3-(4-((methyl(4-(pyridin-2-yloxy)benzyl)amino)methyl)benzyloxy)-1,2,4-triazin-6-yl)phenol], with 3.92 µM.
In turn, `CN(Cc1ccc(COc2ncc(-c3cc(Cl)c(O)c(Cl)c3)nn2)cc1)Cc1cccc(-c2ccncc2)c1` [Compound 177, 2,6-dichloro-4-(3-(4-((methyl(3-(pyridin-4-yl)benzyl)amino)methyl)benzyl-oxy)-1,2,4-triazin-6-yl)phenol] showed a concentration for half-maximal inhibition (IC50) of 2.22 µM.
Then `Oc1c(Cl)cc(-c2cnc(OCc3ccc(CN4Cc5ccc(F)cc5C4)cc3)nn2)cc1Cl` [Compound 178, 2,6-dichloro-4-(3-(4-((5-fluoroisoindolin-2-yl)methyl)benzyloxy)-1,2,4-triazin-6-yl)phenol], with 3.31 µM; and `Oc1c(Cl)cc(-c2cnc(OCCc3ccc(F)cc3)nn2)cc1Cl` [Compound 179, 2,6-dichloro-4-(3-(4-fluorophenethoxy)-1,2,4-triazin-6-yl)phenol], with 2.33 µM.
`Oc1c(Cl)cc(-c2cnc(OCc3ccc(CN4CCc5ccc(Br)cc5C4)cc3)nn2)cc1Cl` [Compound 180] came in with an IC50 of 3.54 µM.
For `CN(Cc1ccc(COc2ncc(-c3cc(Cl)c(O)c(Cl)c3)nn2)cc1)Cc1cccc2ccccc12` [Compound 181, 2,6-dichloro-4-(3-(4-((methyl(naphthalen-1-ylmethyl)amino)methyl)benzyl-oxy)-1,2,4-triazin-6-yl)phenol] the value was 9.15 µM; for `Oc1c(Cl)cc(-c2cnc(OCc3ccc(CN4CCCc5ccccc54)cc3)nn2)cc1Cl` [Compound 182], 11.8 µM; for `CN(Cc1ccc(COc2ncc(-c3cc(Cl)c(O)c(Cl)c3)nn2)cc1)Cc1cccc(Cl)c1Cl` [Compound 183, 2,6-dichloro-4-(3-(4-(((2,3-dichlorobenzyl)(methyl)amino)methyl)benzyloxy)-1,2,4-triazin-6-yl)phenol], 14.6 µM.
`CN(Cc1ccc(COc2ncc(-c3cc(Cl)c(O)c(Cl)c3)nn2)cc1)Cc1ccc(F)c(F)c1` [Compound 184, 2,6-dichloro-4-(3-(4-(((3,4-difluorobenzyl)(methyl)amino)methyl)benzyloxy)-1,2,4-triazin-6-yl)phenol]: the IC50 was found to be 4.94 µM.
Then `CNC(=O)C1Cc2ccccc2CN1Cc1ccc(COc2ncc(-c3cc(Cl)c(O)c(Cl)c3)nn2)cc1` (centres unmarked) [Compound 185, 2-(4-((6-(3,5-dichloro-4-hydroxyphenyl)-1,2,4-triazin-3-yloxy)methyl)benzyl)-N-methyl-1,2,3,4-tetrahydroisoquinoline-3-carboxamide], with 4.64 µM.
For `CN(Cc1ccc(COc2ncc(-c3cc(Cl)c(O)c(Cl)c3)nn2)cc1)Cc1cccc(Oc2ccccn2)c1` [Compound 186, 2,6-dichloro-4-(3-(4-((methyl(3-(pyridin-2-yloxy)benzyl)amino)methyl)benzyloxy)-1,2,4-triazin-6-yl)phenol] the value was 6.97 µM.

These data come from US20090264433A1, “Compounds, Compositions and Methods Comprising Triazine Derivatives” (Institute for OneWorld Health, priority 2008, published 2009).
